Laboratory results: patent US20110212909A1, “Use of Ginsenoside Compound K in the Preparation of a Medicament for the Prevention and Treatment of Atherosclerosis” (priority 2008, published 2011)
Marks after values point to notes of the source that are not given here.

Columns and labels:
Kunming mice = assay: Primary survey for toxicity in mice (gavage, 14 days); format: in vivo
Experimental: 40 Kunming mice (weight 18-22 g) were randomly divided into blank group of 20 mice, and ginsenoside compound K group of 20 mice, wherein male and female mice were fifty-fifty in each group. Fasting was carried out before trial for 16 h, allowing mice to freely drink water. Each mouse in drug group was gavaged with ginsenoside compound K (bought from) suspension according to a dose of 400 mg/kg, and blank group was gavaged equivalent amount of distilled water, with administration carried out once a day. Observation was carried out for 14 days after administration, wherein mice were weighted and animal responses were observed each day. The mice were weighted on fourteenth day of the trial, then were sacrificed and dissected, and tissue change of mice's major organs such as heart, liver, spleen, lung, and kidney were observed.
There was no phenomena such as abnormal crying, tremor, convulsion, dyskinesias, salivation, lacrimation, nose running, respiration difficulty, rapid heartbeat or slow heartbeat, diarrhea, constipation, intestinal tympanites in drug group mice; mice's hair was glossy; No mouse died in 14 days of administration.

[1] = tested on: macrophage-derived foam cells of rat abdominal cavity; assay: Assay of amount of TC and CE in ox-LDL induced macrophage-derived foam cells; format: cell-based
Experimental: 1. Experiment animal: SD rats, male, 200-250 g, bought from the third Military Medical University Experiment Animal Center.
2. Reagents: RPMI 1640 culture medium free of phenol red bought from Invitrogen company; LDL (115 mg/mL) bought from Peking Union Medical College; total cholesterol kit and free cholesterol kit bought from Shanghai Mind Bioengineering Limited Company; ginsenoside compound K (hereinafter being called C-K for short. White powders, purity 99%), provided by Kunming Nuowei Jinshen Bioengineering limited company supply (batch number: NTGA070521, details see China invention patent 200710066011. X “a method of preparing rare ginsenoside compound K by streptomycete fermentation of Sanchi saponins”).
LDL was placed into PBS comprising 10 μM Cu^2+, dialysed at 37° C. for 12 h, then was placed into PBS comprising 0.01% EDTA, and dialysed at 4° C. for 24 hours before stopping oxidization, then was subjected to filtration sterilization, and stored for use.
4. Culture of macrophage and establishment of foam cells model (available literature: Jia Yi, Li Xiaohui, Xing Mao, Hei Xuefeng, Liu Ya, He Cuiyao. Studies on affect of various combinations of 3 sorts of monomers in total panax notoginsenosides on formation of mouse macrophage-derived foam cells. Journal of China Pharmacy, 2008, 19 (2), 881-883.)
each rat were intraperitoneally injected with 2 mL RPMI 1640 culture solution free of serum and phenol red, and it was sacrificed by cervical dislocation after 20 minutes, and was soaked in 75% ethanol for 10 minutes, then rat's belly was cut open, and fluids in abdominal cavity were collected, and centrifugated at 750 r/min for 5 minutes, and then cells were collected, and cells concentrations were adjusted to […] by using RPMI 1640 culture solution which were free of phenol red and comprised 10% Fetal Calf Serum. 10 pieces of 6 wells plate was added 1 mL cells suspension per well, and was placed into an incubator of 5% CO2 at 37 °C, and cultured for two hours, then supernatant was discarded, and nonadhesive cells was washed by using PBS. Original culture medium was discarded. Culture was carried out for 48 hours after adding 5 mL culture medium comprising 20 mg/L ox-LDL, and thereby foam cells were formed.
[…] were divided into ox-LDL model group, pyrrolidine dithiocarbamate (PDTC) (drugs source: Sigma), control group and C-K interference group. Each group had 5 pieces of plates. […]
Culture solution was aspirated, and lipid in foam cells was extracted by Folch method (reference: Folch J et al, A simple method for the isolation and purification of total lipides from animal tissues. J Biol Chem, 1957, 226 (1): 497-509), according to direction for use of kit.
Data was expressed as x±s, and variance analysis was carried out between groups by SPSS 13.0 software.

perilipin mRNA = assay: Real-time quantitative PCR of perilipin mRNA in foam cells; format: cell-based; conditions: 25 μM, rat foam cells
Experimental: FIG. 2 provides effects of a ginsenoside compound K (C-K, 25 μM) and pyrrolidine dithiocarbamate (PDTC, 25 μM) on the foam cell perilipin mRNA expression.
a: P<0.05, vs. foam cells group. PDTC (25 μM) C-K (25 μM) (n=5).
(§1) (1) Material and reagents (the same as Examples 2).
(§2) (2) real-time quantitative PCR analysis (a reference method: Zhang Yiguan, Li Xiaohui, Fan Jishan, Zhang Haigang, Li Shuhui, Liao Wenqiang, Pang Yan, Jia Yi. Total panax notoginsenosides suppress atherosclerosis formation in rats by means of antiinflammatory and blood fat regulating action. Progress in Modern Biomedicine. 2007, 27 (11): 1601-1607).
(§3) Data was expressed as x±s, variance analysis were carried out between groups by SPSS 13.0 software.

perilipin protein = assay: Protein expression of perilipin in foam cells; format: cell-based; conditions: 25 μM, rat foam cells
Experimental: FIG. 3 provides effects of a ginsenoside compound K (C-K, 25 μM) and pyrrolidine dithiocarbamate (PDTC, 25 μM) on the protein expression of perilipin in foam cell. a: P<0.01, vs foam cell group PDTC (25 μM) C-K (25 μM) (n=5).
as §1, §3

LXRα mRNA = assay: Real-time quantitative PCR of LXRα mRNA in foam cells; format: cell-based; conditions: 25 μM, rat foam cells
Experimental: FIG. 5 provides effects of a ginsenoside compound K (C-K, 25 μM) and pyrrolidine dithiocarbamate (PDTC, 25 μM) on the foam cell LXRα mRNA expression. a: P<0.05, vs foam cell group. PDTC (25 μM) C-K (25 μM) (n=5).
as §1, §2, §3

In the case of `CC(C)=CCC[C@](C)(OC1OC(CO)C(O)C(O)C1O)C1CC[C@]2(C)C1[C@H](O)CC1[C@@]3(C)CC[C@H](O)C(C)(C)C3CC[C@]12C` (stereo partly drawn) [C-K, 20-O-β-D-glucopyranosyl 20-(S)-protopanaxadiol], the “mice's response to acute toxicity” value (Kunming mice; Kunming mice, 400 mg/kg gavage) is reported as “not obvious”, the “time until signs after gavage (eye closed, lying down, reduced autonomic activities, appetite descent) restored normal” value (Kunming mice; Kunming mice, 400 mg/kg gavage) is reported as ≤ 2 h and the “death of mice in 14 days of administration” value (Kunming mice; Kunming mice, 400 mg/kg gavage once a day, 14 days) is reported as “No mouse died”. For the same molecule, the “organs observed by naked eye after dissection” value (Kunming mice; mouse, in vivo, 400 mg/kg) was “no abnormality in each organ”, the “TC and CE amount in foam cells compared with model group” value ([1]; 25 nM as printed in text) was “significantly lowered” and the “CE in foam cells” value ([1]; 25 μM, 48 hours, rat foam cells, x ± s, n = 5, ox-LDL model group 15.24 ± 2.38) was 28.12 ± 3.12^a. The “CE/TC in foam cells” value ([1]; 25 μM, 48 hours, rat foam cells, x ± s, n = 5, ox-LDL model group 59.56 ± 2.96) was 47.01 ± 3.80^a %, the “TC in foam cells” value ([1]; 25 μM, 48 hours, rat foam cells, x ± s, n = 5, ox-LDL model group 87.20 ± 2.19) was 59.72 ± 2.38^a and the “expression of perilipin mRNA in foam cells compared with model group” value (perilipin mRNA) was “significantly down-regulated”. The “expression of perilipin proteins in foam cells compared with model group” value (perilipin protein) was “significantly down-regulated” and the “expression of LXRα mRNA in foam cells compared with model group” value (LXRα mRNA) was “significantly up-regulated”.
